Measurements from the NIST ThermoML archive (doi:10.1016/j.fluid.2010.03.042).
± gives the expanded uncertainty stated by the source.

Assay: xn = mol fraction of the nth substance listed
Details: Liquid, Vibrating tube method

CCCCO [butan-1-ol] + O=C=O
Details | mass density [kg/m3]
313.22 K, x2 = 0.1294 | 806.8 ± 0.5
313.22 K, x2 = 0.2204 | 816.8 ± 0.6
313.22 K, x2 = 0.2354 | 818.6 ± 0.7
313.22 K, x2 = 0.3409 | 823.7 ± 0.5
313.22 K, x2 = 0.4311 | 826.1 ± 0.4
313.22 K, x2 = 0.5847 | 827.7 ± 0.9
313.22 K, x2 = 0.8543 | 797 ± 0.4
363.17 K, x2 = 0.1186 | 711.3 ± 1.6
363.17 K, x2 = 0.1985 | 762 ± 1.3
363.17 K, x2 = 0.2821 | 764.7 ± 0.4
363.17 K, x2 = 0.3623 | 765.5 ± 0.4
363.17 K, x2 = 0.4604 | 765.5 ± 0.4
363.17 K, x2 = 0.5637 | 760.6 ± 0.8
363.17 K, x2 = 0.6867 | 750.9 ± 3
363.17 K, x2 = 0.7105 | 745.8 ± 4.9
363.17 K, x2 = 0.7597 | 726.6 ± 5.9

CCC(C)O (centres undefined) [butan-2-ol] + O=C=O
Details | mass density [kg/m3]
313.21 K, x2 = 0.166 | 795.6 ± 0.8
313.21 K, x2 = 0.2247 | 807.4 ± 0.6
313.21 K, x2 = 0.3339 | 813.7 ± 0.5
313.21 K, x2 = 0.435 | 816.8 ± 0.5
313.21 K, x2 = 0.5177 | 818.9 ± 0.4
313.21 K, x2 = 0.6282 | 818.5 ± 0.4
313.21 K, x2 = 0.7453 | 817.2 ± 0.5
313.21 K, x2 = 0.7457 | 817.5 ± 0.5
313.21 K, x2 = 0.8604 | 815.4 ± 0.6
313.21 K, x2 = 0.9197 | 813.8 ± 0.7
333.12 K, x2 = 0.137 | 771.6 ± 0.5
333.12 K, x2 = 0.2174 | 782.3 ± 0.5
333.12 K, x2 = 0.3029 | 786.1 ± 0.5
333.12 K, x2 = 0.3944 | 790.2 ± 0.5
333.12 K, x2 = 0.4533 | 791.8 ± 0.4
333.12 K, x2 = 0.5642 | 790.7 ± 0.4
333.12 K, x2 = 0.6485 | 787.2 ± 0.8
333.12 K, x2 = 0.7937 | 775.5 ± 2.3
333.12 K, x2 = 0.8376 | 758.6 ± 12
363.06 K, x2 = 0.1273 | 743.6 ± 0.4
363.06 K, x2 = 0.1978 | 746.7 ± 0.4
363.06 K, x2 = 0.2588 | 747.7 ± 0.4
363.06 K, x2 = 0.2793 | 748.3 ± 0.5
363.06 K, x2 = 0.3584 | 743.8 ± 0.6
363.06 K, x2 = 0.4344 | 738.3 ± 1.6
363.06 K, x2 = 0.5565 | 709.3 ± 3.9
363.06 K, x2 = 0.6978 | 647.2 ± 6
363.06 K, x2 = 0.7871 | 611.7 ± 6.3
